pIC50: −log10 of the molar value.
System: KRAS PDC multicell spheroid viability
Experiment: Anticancer human tumor 521955-158-R6-J3-PDC patient-derived pancreatic carcinoma cell line growth inhibition [KRAS2]
Settings: for pIC50: curve of first compound; for viability, T/C: stronger effect = lower value
Summary of the method: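 Combination screen of spheroid viability in tumor-cell co-cultures with endothelial (HUVEC) and mesenchymal stem cell stroma. Each agent was tested in half-log dilutions, topping at clinical Cmax or at 10 microM without a known Cmax.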

[1] = second compound 0.1 µM, first compound 0.000316 µM
[2] = second compound 0.1 µM, first compound 0.001 µM
[3] = second compound 0.1 µM, first compound 0.00316 µM
[4] = second compound 0.1 µM, first compound 0.01 µM
[5] = second compound 0.1 µM, first compound 0.0316 µM
[6] = second compound 0.316 µM, first compound 0.000316 µM
[7] = second compound 0.316 µM, first compound 0.001 µM
[8] = second compound 0.316 µM, first compound 0.00316 µM
[9] = second compound 0.316 µM, first compound 0.01 µM
[10] = second compound 0.316 µM, first compound 0.0316 µM
[11] = second compound 1 µM, first compound 0.000316 µM
[12] = second compound 1 µM, first compound 0.001 µM
[13] = second compound 1 µM, first compound 0.00316 µM
[14] = second compound 1 µM, first compound 0.01 µM
[15] = second compound 1 µM, first compound 0.0316 µM
[16] = second compound 3.16 µM, first compound 0.000316 µM
[17] = second compound 3.16 µM, first compound 0.001 µM
[18] = second compound 3.16 µM, first compound 0.00316 µM
[19] = second compound 3.16 µM, first compound 0.01 µM
[20] = second compound 3.16 µM, first compound 0.0316 µM
[21] = second compound 10 µM, first compound 0.000316 µM
[22] = second compound 10 µM, first compound 0.001 µM
[23] = second compound 10 µM, first compound 0.00316 µM
[24] = second compound 10 µM, first compound 0.01 µM
[25] = second compound 10 µM, first compound 0.0316 µM
[26] = second compound 0.1 µM, first compound 0.1 µM
[27] = second compound 0.316 µM, first compound 0.1 µM
[28] = second compound 1 µM, first compound 0.1 µM
[29] = second compound 3.16 µM, first compound 0.1 µM
[30] = second compound 10 µM, first compound 0.1 µM
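Further: drug exposure lasted seven days.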
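Wherever viability, T/C is given: 100% = DMSO vehicle wells and lower means fewer viable cells.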

CC(=O)Nc1cccc(-n2c(=O)n(C3CC3)c(=O)c3c(Nc4ccc(I)cc4F)n(C)c(=O)c(C)c32)c1 + COc1cc2nc(C)nc(NC(C)c3cc(N)cc(C(F)(F)F)c3)c2cc1OC1CCOC1
pIC50 (second compound 0.1 µM): 7.78
pIC50 (second compound 0.316 µM): 7.99
pIC50 (second compound 1 µM): 7.91
pIC50 (second compound 3.16 µM): 8.21
pIC50 (second compound 10 µM): > 10.00
viability, T/C (second compound 0.1 µM, first compound 0.0001 µM): 88%
viability, T/C [1]: 88.4%
viability, T/C [2]: 92.4%
viability, T/C [3]: 81.7%
viability, T/C [4]: 60.7%
viability, T/C [5]: 36.9%
viability, T/C (second compound 0.316 µM, first compound 0.0001 µM): 88.1%
viability, T/C [6]: 83.6%
viability, T/C [7]: 75.3%
viability, T/C [8]: 67.1%
viability, T/C [9]: 48.8%
viability, T/C [10]: 37.4%
viability, T/C (second compound 1 µM, first compound 0.0001 µM): 81.4%
viability, T/C [11]: 86.6%
viability, T/C [12]: 81.1%
viability, T/C [13]: 67.5%
viability, T/C [14]: 55.4%
viability, T/C [15]: 31.8%
viability, T/C (second compound 3.16 µM, first compound 0.0001 µM): 72.6%
viability, T/C [16]: 79.3%
viability, T/C [17]: 76.7%
viability, T/C [18]: 54.6%
viability, T/C [19]: 45.5%
viability, T/C [20]: 21.8%
viability, T/C (second compound 10 µM, first compound 0.0001 µM): 20.7%
viability, T/C [21]: 21.2%
viability, T/C [22]: 10.6%
viability, T/C [23]: 1.6%
viability, T/C [24]: 4.51%
viability, T/C [25]: 2.2%

CC(C)n1nc(-c2ccc3oc(N)nc3c2)c2c(N)ncnc21 + COc1cc2nc(C)nc(NC(C)c3cc(N)cc(C(F)(F)F)c3)c2cc1OC1CCOC1
pIC50 (second compound 0.1 µM): 7.01
pIC50 (second compound 0.316 µM): 7.02
pIC50 (second compound 1 µM): 7.04
pIC50 (second compound 3.16 µM): 7.25
pIC50 (second compound 10 µM): > 9.50
viability, T/C [1]: 96.3%
viability, T/C [2]: 96%
viability, T/C [3]: 79.9%
viability, T/C [4]: 73.8%
viability, T/C [5]: 63.9%
viability, T/C [26]: 49.1%
viability, T/C [6]: 101%
viability, T/C [7]: 85.9%
viability, T/C [8]: 80%
viability, T/C [9]: 69.6%
viability, T/C [10]: 64.6%
viability, T/C [27]: 47.3%
viability, T/C [11]: 94.8%
viability, T/C [12]: 87.1%
viability, T/C [13]: 74.8%
viability, T/C [14]: 75.1%
viability, T/C [15]: 63%
viability, T/C [28]: 46.8%
viability, T/C [16]: 64.9%
viability, T/C [17]: 66.8%
viability, T/C [18]: 63.5%
viability, T/C [19]: 60.1%
viability, T/C [20]: 61.6%
viability, T/C [29]: 39.5%
viability, T/C [21]: 32%
viability, T/C [22]: 24.6%
viability, T/C [23]: 68.8%
viability, T/C [24]: 60.7%
viability, T/C [25]: 45.5%
viability, T/C [30]: 39.6%

CC1(C)CCC(CN2CCN(c3ccc(C(=O)NS(=O)(=O)c4ccc(NCC5CCOCC5)c([N+](=O)[O-])c4)c(Oc4cnc5[nH]ccc5c4)c3)CC2)=C(c2ccc(Cl)cc2)C1 + COc1cc2nc(C)nc(NC(C)c3cc(N)cc(C(F)(F)F)c3)c2cc1OC1CCOC1
pIC50 (second compound 0.1 µM): 5.09
pIC50 (second compound 0.316 µM): 5.06
pIC50 (second compound 1 µM): 5.22
pIC50 (second compound 3.16 µM): 5.55
pIC50 (second compound 10 µM): > 7.50
viability, T/C [5]: 103%
viability, T/C [26]: 100%
viability, T/C (second compound 0.1 µM, first compound 0.316 µM): 91.6%
viability, T/C (second compound 0.1 µM, first compound 1 µM): 107%
viability, T/C (second compound 0.1 µM, first compound 3.16 µM): 77.8%
viability, T/C (second compound 0.1 µM, first compound 10 µM): 44.3%
viability, T/C [10]: 90.8%
viability, T/C [27]: 102%
viability, T/C (second compound 0.316 µM, first compound 0.316 µM): 95.7%
viability, T/C (second compound 0.316 µM, first compound 1 µM): 81.7%
viability, T/C (second compound 0.316 µM, first compound 3.16 µM): 70.5%
viability, T/C (second compound 0.316 µM, first compound 10 µM): 47.1%
viability, T/C [15]: 90.1%
viability, T/C [28]: 99.3%
viability, T/C (second compound 1 µM, first compound 0.316 µM): 88.1%
viability, T/C (second compound 1 µM, first compound 1 µM): 89.5%
viability, T/C (second compound 1 µM, first compound 3.16 µM): 63.1%
viability, T/C (second compound 1 µM, first compound 10 µM): 40%
viability, T/C [20]: 68.9%
viability, T/C [29]: 67.5%
viability, T/C (second compound 3.16 µM, first compound 0.316 µM): 69.3%
viability, T/C (second compound 3.16 µM, first compound 1 µM): 74%
viability, T/C (second compound 3.16 µM, first compound 3.16 µM): 47.7%
viability, T/C (second compound 3.16 µM, first compound 10 µM): 30.3%
viability, T/C [25]: 19.5%
viability, T/C [30]: 23.6%
viability, T/C (second compound 10 µM, first compound 0.316 µM): 17.3%
viability, T/C (second compound 10 µM, first compound 1 µM): 31.4%
viability, T/C (second compound 10 µM, first compound 3.16 µM): 18.6%
viability, T/C (second compound 10 µM, first compound 10 µM): 4.55%
